Measurements from article PMC12195740, “Discovery of Novel Imidazothiazole-Based Hydroxamic Acid Derivatives as Potent Indoleamine 2,3-Dioxygenase 1 and Histone Deacetylase 6 Dual Inhibitors” (Molecules, 2025).

Columns and labels:
[1] = design: method as in PMID 32815366; conditions: cell line not given; cited from earlier work
[2] = biological target: T1, rhIDO1 (Homo sapiens, UniProt P14902); assay: IDO1 inhibition assay; type: biochemical; conditions: means ± S.D. of three independent experiments
T1 construct: purchased
T1 sequence (P14902 whole entry): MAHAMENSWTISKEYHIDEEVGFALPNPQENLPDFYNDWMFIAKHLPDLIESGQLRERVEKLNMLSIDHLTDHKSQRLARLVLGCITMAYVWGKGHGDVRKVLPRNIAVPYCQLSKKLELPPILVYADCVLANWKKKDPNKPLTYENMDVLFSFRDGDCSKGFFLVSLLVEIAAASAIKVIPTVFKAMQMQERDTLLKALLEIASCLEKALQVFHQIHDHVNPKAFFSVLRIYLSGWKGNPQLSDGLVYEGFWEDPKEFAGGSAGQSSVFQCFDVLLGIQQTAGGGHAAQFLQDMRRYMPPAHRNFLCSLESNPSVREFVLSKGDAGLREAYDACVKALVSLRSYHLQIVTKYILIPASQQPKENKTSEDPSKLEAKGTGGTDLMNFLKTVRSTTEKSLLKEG
Description: Section S1. Biological assays […]
Section S 1.2 IDO1 inhibition assays
IDO1 inhibition assays were carried out according to the manufacturers’ procedures, as described previously. The standard assay mixture (100 μL) contained 50 mM of potassium phosphate buffer (pH = 6.5), 10 mM ascorbate, 10 μM methylene blue, 100 μg/mL catalase, 1 mM L-tryptophan and 10 μg/mL of rhIDO1. The plate was incubated at 37 °C in a dark environment, and reactions were terminated after 60 min by the addition of 50 μL of fluorogenic developer solution and further incubated at 45 °C in dark for 3 h. Then, the plate was allowed to cool to room temperature for at least 1 h. After centrifugation at 1500g for 5 min at 20 °C, the fluorescence […]
M1000 Pro, Tecan US, Morrisville, NC) in an end-point mode. […]

[3] = biological target: T2, HDAC6 human recombinant enzyme (Homo sapiens, UniProt Q9UBN7); assay: HDAC6 enzyme inhibitory activity assay; type: biochemical; conditions: for inhibition at 1 µM: read-out: HDAC6 Inhibition Rate at 1 μM
T2 sequence (Q9UBN7 1-1215): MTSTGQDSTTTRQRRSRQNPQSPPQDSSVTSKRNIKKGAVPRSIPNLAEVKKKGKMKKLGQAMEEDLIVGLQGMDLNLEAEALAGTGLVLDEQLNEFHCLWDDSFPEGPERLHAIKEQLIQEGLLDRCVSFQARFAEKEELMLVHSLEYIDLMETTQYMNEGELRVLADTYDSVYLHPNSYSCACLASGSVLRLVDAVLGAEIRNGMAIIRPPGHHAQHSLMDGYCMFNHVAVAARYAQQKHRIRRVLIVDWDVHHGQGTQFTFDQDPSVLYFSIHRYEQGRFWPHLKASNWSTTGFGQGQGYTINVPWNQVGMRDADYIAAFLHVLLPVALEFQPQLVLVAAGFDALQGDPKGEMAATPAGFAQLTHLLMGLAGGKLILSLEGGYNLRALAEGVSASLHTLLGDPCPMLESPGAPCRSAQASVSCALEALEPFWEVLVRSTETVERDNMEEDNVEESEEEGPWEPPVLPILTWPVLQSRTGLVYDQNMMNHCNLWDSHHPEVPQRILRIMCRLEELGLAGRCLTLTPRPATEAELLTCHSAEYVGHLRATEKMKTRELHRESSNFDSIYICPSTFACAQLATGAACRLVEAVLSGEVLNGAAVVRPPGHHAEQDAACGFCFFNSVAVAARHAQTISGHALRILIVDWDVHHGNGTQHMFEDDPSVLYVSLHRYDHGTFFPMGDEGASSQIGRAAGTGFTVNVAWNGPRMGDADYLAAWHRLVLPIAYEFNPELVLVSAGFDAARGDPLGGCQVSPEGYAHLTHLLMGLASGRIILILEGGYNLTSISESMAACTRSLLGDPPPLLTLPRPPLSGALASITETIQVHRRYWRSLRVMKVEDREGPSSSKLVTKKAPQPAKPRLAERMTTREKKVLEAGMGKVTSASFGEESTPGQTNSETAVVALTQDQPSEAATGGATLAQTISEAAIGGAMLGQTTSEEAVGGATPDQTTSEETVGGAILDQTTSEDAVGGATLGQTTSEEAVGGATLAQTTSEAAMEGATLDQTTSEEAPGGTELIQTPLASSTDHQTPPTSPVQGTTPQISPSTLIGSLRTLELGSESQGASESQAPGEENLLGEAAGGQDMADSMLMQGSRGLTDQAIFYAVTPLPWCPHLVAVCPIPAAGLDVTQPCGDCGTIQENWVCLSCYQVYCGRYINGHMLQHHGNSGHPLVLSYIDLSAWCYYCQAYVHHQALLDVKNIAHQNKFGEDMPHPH
Description: Section S1. Biological assays
Section S 1.1. HDAC6 enzyme inhibitory activity assay
Preparation of Master Mix. Trichostatin A in DMSO, Fluorogenic HDAC substrate 3, and HDAC6 human recombinant enzyme were diluted to 20 μM, 200 μM, and 7 ng/uL, respectively, using HDAC Assay Buffer.BSA was dissolved in 1 mL of distilled water to make a BSA solution at a concentration of 1 mg/mL. A certain amount of Fluorogenic HDAC substrate 3, BSA and HDAC Assay Buffer were mixed well to make a master mix, and 40 μL of the master mix was added to each well of a 96-well plate. In the drug administration group, 5 μL of Trichostatin A in DMSO and HDAC6 human recombinant enzyme were added to each well. 5 μL of HDAC Assay Buffer and HDAC6 human recombinant enzyme were added to each well of the blank group, and incubated for 30 min at 37 °C. Finally, 50 μL of undiluted HDAC substrate 3, BSA and HDAC Assay Buffer were added to each well. 50 μL of 2x HDAC Developer was added to each well and incubated at room temperature for 15 min. The samples were read in an enzyme marker with an excitation wavelength in the range of 350-380 nm and an emission light in the range of 440-460 nm.
The values of fluorescence intensities were read and the inhibition rate and IC50 were calculated. […]

[4] = biological target: HDAC1 (Homo sapiens, UniProt Q13547); assay: HDAC isoform selectivity assay, HDAC1; type: biochemical
Chain of HDAC1 (Q13547 whole entry, species assumed, canonical isoform): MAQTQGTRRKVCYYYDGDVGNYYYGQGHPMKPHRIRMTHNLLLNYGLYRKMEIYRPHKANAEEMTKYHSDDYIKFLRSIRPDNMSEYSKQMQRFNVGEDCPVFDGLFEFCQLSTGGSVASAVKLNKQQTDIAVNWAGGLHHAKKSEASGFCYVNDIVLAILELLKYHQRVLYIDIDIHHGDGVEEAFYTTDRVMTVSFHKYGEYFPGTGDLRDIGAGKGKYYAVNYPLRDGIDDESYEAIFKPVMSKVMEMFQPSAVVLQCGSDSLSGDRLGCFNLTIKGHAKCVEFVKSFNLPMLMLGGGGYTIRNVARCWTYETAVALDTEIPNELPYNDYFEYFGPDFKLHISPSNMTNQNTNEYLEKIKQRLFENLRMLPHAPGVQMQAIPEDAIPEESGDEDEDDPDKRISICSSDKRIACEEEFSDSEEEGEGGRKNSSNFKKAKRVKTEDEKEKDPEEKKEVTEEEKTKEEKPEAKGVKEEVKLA

[5] = biological target: HDAC4 (Homo sapiens, UniProt P56524); assay: HDAC isoform selectivity assay, HDAC4; type: biochemical; conditions: read-out: HDAC4 % inhibition rate at 10 μM
Chain of HDAC4 (P56524 whole entry, species assumed, canonical isoform): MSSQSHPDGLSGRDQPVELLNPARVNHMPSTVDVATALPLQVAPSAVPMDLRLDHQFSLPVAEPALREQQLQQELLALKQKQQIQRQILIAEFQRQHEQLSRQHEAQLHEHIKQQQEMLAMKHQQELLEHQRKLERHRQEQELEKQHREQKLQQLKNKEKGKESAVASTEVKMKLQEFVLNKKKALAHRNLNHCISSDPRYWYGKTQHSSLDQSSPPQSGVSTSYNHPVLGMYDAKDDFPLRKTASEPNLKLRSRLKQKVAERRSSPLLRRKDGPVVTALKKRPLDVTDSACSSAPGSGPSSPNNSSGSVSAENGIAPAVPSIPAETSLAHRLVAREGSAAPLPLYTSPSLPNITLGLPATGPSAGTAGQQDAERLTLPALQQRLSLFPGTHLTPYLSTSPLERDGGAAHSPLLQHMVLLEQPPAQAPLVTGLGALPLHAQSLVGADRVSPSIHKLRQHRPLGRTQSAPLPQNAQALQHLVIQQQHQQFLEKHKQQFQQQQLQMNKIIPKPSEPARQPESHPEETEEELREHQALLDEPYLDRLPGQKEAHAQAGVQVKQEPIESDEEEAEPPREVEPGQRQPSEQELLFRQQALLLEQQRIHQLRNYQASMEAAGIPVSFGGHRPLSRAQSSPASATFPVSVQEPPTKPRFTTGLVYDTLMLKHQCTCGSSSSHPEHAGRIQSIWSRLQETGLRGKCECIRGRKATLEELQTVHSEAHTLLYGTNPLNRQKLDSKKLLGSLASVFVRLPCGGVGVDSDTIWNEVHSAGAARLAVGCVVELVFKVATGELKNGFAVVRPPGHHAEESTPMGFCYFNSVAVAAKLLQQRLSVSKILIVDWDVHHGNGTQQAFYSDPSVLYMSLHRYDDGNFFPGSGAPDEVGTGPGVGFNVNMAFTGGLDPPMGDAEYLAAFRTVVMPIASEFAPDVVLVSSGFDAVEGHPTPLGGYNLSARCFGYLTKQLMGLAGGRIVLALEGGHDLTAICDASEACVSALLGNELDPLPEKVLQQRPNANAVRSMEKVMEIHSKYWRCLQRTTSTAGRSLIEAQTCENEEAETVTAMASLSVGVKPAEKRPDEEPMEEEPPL

[6] = biological target: T3, HDAC11 (Homo sapiens, UniProt Q96DB2); assay: HDAC isoform selectivity assay, HDAC11; type: biochemical
T3 sequence (Q96DB2 1-347): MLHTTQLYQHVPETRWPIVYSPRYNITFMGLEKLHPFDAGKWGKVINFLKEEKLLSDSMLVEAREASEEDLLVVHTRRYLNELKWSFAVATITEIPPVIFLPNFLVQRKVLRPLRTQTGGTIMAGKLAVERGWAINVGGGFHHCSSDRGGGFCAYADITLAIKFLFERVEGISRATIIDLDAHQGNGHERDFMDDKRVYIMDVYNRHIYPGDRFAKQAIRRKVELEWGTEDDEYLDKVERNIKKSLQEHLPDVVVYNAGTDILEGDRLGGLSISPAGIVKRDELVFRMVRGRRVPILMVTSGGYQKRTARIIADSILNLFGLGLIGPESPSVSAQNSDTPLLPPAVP

[7] = tested on: SW480 cells; assay: Cell viability (MTT) assay, SW480; conditions: Homo sapiens, SW480, 48 h, read-out: Antiproliferative IC50, SW480
Description: Section S 1.3 Cell viability assays
(§1) Cell Bank at the Chinese Academy of Sciences.
(§2) DMEM and FBS were obtained from Gibco-Thermo (BRL Co. Ltd., USA).
(§3) another 48 h. The cells were stained with 10 μl of MTT at incubator for approximately 4 h. The medium was discarded and replaced by 100 mL DMSO. The O.D. value was read at 570/630 nm with a spectrophotometer.

[8] = tested on: MCF-7 cells; assay: Cell viability (MTT) assay, MCF-7; conditions: Homo sapiens, MCF7, 48 h, read-out: Antiproliferative IC50, MCF-7
Description: Section S 1.3 Cell viability assays
as §1, §2, §3

[9] = tested on: HCT-116 cells; assay: Cell viability (MTT) assay, HCT-116; conditions: Homo sapiens, HCT-116, 48 h, read-out: Antiproliferative IC50, HCT-116
Description: Section S 1.3 Cell viability assays
as §1, §2, §3

[10] = tested on: MDA-MB-231 cells; assay: Cell viability (MTT) assay, MDA-MB-231; conditions: Homo sapiens, MDA-MB-231, 48 h, read-out: Antiproliferative IC50, MDA-MB-231
Description: Section S 1.3 Cell viability assays
as §1, §2, §3

[11] = Cell viability assay, HK2 normal renal cells; conditions: human
Description: On the basis of the IDO1 and HDAC activities, we explored the proliferation inhibitory activities of the selected compounds against four solid tumor cells lines.

Row | IC50 [2] [µM] | IC50 [3] [µM] | Selectivity Index (SI) = HDAC1 IC50 value/HDAC6 IC50 value [3] | inhibition at 1 µM [3] [%] | IC50 [4] [µM] | inhibition at 10 µM [5] [%] | inhibition at 10 µM ([6]; read-out: HDAC11 % inhibition rate at 10 μM) [%] | IC50 [7] [µM] | IC50 [8] [µM] | IC50 [9] [µM] | IC50 [10] [µM] | IC50 [6] [µM] | Structure (SMILES) | concentration at which cytotoxicity begins [1] [µM] | IC50 [11] [µM]
1 | – | – | – | – | – | – | – | – | – | – | – | – | NCc1ccc(NC(=O)N(CCCCO)Cc2ccc(C(=O)NO)cc2)cc1 [Suprastat] | > 25 | –
2 | – | – | – | – | – | – | – | – | – | – | – | – | CCCCN(Cc1ccc(C(=O)NO)cc1)C(=O)Nc1ccccc1 [NextA] | 10 | –
3 | 0.16 ± 0.03 | 0.391 | 3.04 | 70.7 | 1.19 | 9.68 | 29.8 | > 80 | > 80 | > 80 | > 80 | – | Cc1ccc(-c2csc3ncc(C(=O)Nc4ccc(NCCCCCCC(=O)NO)cc4)n23)cc1 [Compound 10k, N-{4-[(7-(hydroxyamino)-7-oxoheptyl)amino]phenyl}-3-(p-tolyl)imidazo[2,1-b]thiazole-5-carboxamide] | – | –
4 | 6.52 ± 0.45 | – | – | – | – | – | – | > 80 | > 80 | > 80 | > 80 | – | O=C(O)c1cnc2scc(-c3ccc(Br)cc3)n12 [5a] | – | > 80
5 | 0.53 ± 0.11 | 0.0844 | 29.00 | 85.6 | 2.45 | 31.5 | – | > 80 | > 80 | > 80 | > 80 | 6.06 | O=C(NO)c1ccc(CNC(=O)c2cnc3scc(-c4ccc(Br)cc4)n23)cc1 [Compound 7a, 3-(4-Bromophenyl)-N-[4-(hydroxycarbamoyl)benzyl]imidazo[2,1-b]thiazole-5-carboxamide] | – | –
